The term IC50 denotes the concentration needed to halve the response being measured.

Series [1] in a line: Ocular bioavailability (aqueous humor levels by HPLC). In kind it is in vivo. The following applies: single instillation into conjunctival sac. As for the experimental part:
Three rabbits were used per time point. The […] test substance was administered in a single instillation using a micropipette into the conjunctival sac of the right and the left eyes. The rabbits were anesthetized with an intramuscular injection of Imalgène® 1000 (ketamine 32 mg/kg), and Rompun® (xylasine 7.5 mg/kg). They were then desanguinated by cardiac puncture and thereafter euthanized by an overdose of pentobarbital. Immediately after death, the eyes were micro-dissected to obtain: cornea (C), aqueous humor (AH), and iris-ciliary body (ICB). All samples were stored at −80° C. Only aqueous humor (AH) samples were analyzed by HPLC.

Series [2] can be described thus: Accelerated stability test of 0.25% solutions in acetate buffer, HPLC. The format is physicochemical. The following applies: for projected shelf-life of eye drop formulation: at room temperature, projected from the accelerated test. As for the experimental part:
An accelerated stability test was conducted on 0.25% solutions of compounds 6, 7, and 8 (Example 2) at 40° C. for 1, 2, 3, 4, 8 and 12 weeks and monitored for the disappearance of the prodrugs and appearance of the parent compound by HPLC analysis. The parent compound (referred to hereinafter as compound 4) has the formula: [drawing 47]
The respective compounds were dissolved in an acetate buffer, pH 3.5 (0.018% sodium acetate, 0.135% acetic acid, 0.9% sodium chloride in water for injection) to obtain 0.25% solution. The stability of the compounds was determined at 40° C. for 1, 2, 3, 4, 8, and 12 weeks. The concentration of the parent compound as well as the concentrations of the prodrug compounds 6, 7, and 8 at each time point by HPLC method.

For series [3], the system named is albino rabbits. Kind of series: Evaluation of ocular irritation. The format is in vivo, rabbit. The procedure: Thirty albino rabbits were randomly divided into five groups. Each rabbit was dosed in the conjunctival sac of the right eye topically every ten minutes for one hour (six doses) with 50 μL of 0.0%, 0.3%, 0.5%, 1.0% and 2% of test compound, in 0.9% saline solution. The treated eye of each rabbit was examined for indications of ocular irritation, including swelling, discharge, redness, iritis of conjunctiva, eyelid, iris as well as opacity and involvement of the cornea. Individual scores were added to determine the degree of slight, moderate or severe irritation. Ocular observations were made before the treatment, one hour after the first and sixth instillation and then 1, 2, 3, 4 and 7 days, using a slit lamp.

Series [4] deals with albino rabbits. Kind of series: Corneal anesthesia measurements (Cochet's esthesiometer). The format is in vivo, rabbit. As for the experimental part: The effect of a 50 μl single instillation of 0.3%, 0.5%, 1.0% and 2.0% solution of compound 7 on corneal anesthesia, after a single instillation in the conjunctival sac of the right eyes of albino rabbits (N=5) was measured using a Cochet's esthesiometer (nylon thread: 0.12 mm diameter, 10 mm long). Corneal anesthesia was evaluated by the number of corneal mechanical stimuli necessary to induce a blinking reflex. The effect of drug solutions was compared with sterile 0.9% NaCl treated animals (control group) and 0.4% oxybuprocaine (Novesine®).

The target in series [5] is Human recombinant adrenergic beta-1 (Homo sapiens, UniProt P08588). Kind of series: Human recombinant adrenergic beta-1 radioligand binding assay ([125I]Cyanopindolol). The following applies: [125I]Cyanopindolol radioligand; read-out: Binding efficacy IC50. As for the experimental part: Human recombinant adrenergic beta-1 Assays (Radioligand Binding) were conducted according to the procedure described by Feve, B., et al., Proc. Natl. Acad. Sci. USA, 91, 5677, 1994 using [[^125I]]Cyanopindolol as a radioligand. The results are expressed in IC50 (nM). (Table B)
Sequence of Human recombinant adrenergic beta-1 (P08588 whole entry): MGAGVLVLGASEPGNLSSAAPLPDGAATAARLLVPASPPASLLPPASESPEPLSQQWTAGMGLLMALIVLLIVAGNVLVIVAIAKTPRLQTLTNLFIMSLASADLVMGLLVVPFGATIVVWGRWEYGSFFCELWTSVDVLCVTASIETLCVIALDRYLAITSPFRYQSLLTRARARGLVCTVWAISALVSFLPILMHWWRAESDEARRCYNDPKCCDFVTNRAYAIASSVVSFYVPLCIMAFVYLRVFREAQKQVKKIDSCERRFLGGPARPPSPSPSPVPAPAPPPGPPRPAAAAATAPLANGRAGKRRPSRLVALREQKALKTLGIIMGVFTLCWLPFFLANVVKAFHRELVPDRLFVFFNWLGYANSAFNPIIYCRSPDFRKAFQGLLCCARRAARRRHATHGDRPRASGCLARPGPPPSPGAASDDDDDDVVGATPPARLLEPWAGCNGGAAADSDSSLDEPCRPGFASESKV

As for `Cc1cc(O)c(O)cc1C(=O)OCC(CNC(C)(C)CNC(=O)C1CCOC1)OC(=O)C(C)(C)C` (stereo not shown) [Compound 6, reference compound], the “level of the prodrug itself in aqueous humor” value in series [1] is listed as “below the detection limit”. Besides, the “projected shelf-life of eye drop formulation” value (“projected shelf-life” below) in series [2] was found to be 2.6 months. In addition, the ocular irritation result in the series with albino rabbits [3] (at 1% concentration) was “moderate irritation”. Also, in the series on albino rabbits [4] (at 1%), the corneal sensitivity loss entry is “complete corneal sensitivity loss”.

As for `Cc1cc(O)c(O)cc1C(=O)OCC(CNC(C)(C)CNC(=O)C1CCOC1)OC(=O)C1(C)CC1` (stereo not shown) [Compound 7, 4,5-Dihydroxy-2-methyl-benzoic acid 3-{1,1-dimethyl-2-[(tetrahydro-furan-3-carbonyl)-amino]-ethylamino}-2-(1-methyl-cyclopropanecarbonyloxy)-propyl ester], the “level of the prodrug itself in aqueous humor” value in series [1] is given as “also present in aqueous humor”. Further, the “relative stability (percent degradation time course, FIG. 1)” value in series [2] (0.25% solution, 40° C., pH 3.5, up to 12 weeks) is “most stable”. For the same compound, the “projected shelf-life” value in series [2] was “at least 18 months”. The ocular irritation result with albino rabbits [3] (topical, six times every ten minutes at 0.3%, 0.5%, 1.0% and 2.0%, right conjunctival sac, vs 0.9% saline control) was “no ocular irritation”. Further, the “corneal sensitivity (local anesthetic activity)” value in the series on albino rabbits [4] (single 50 μl instillation of 0.3%, 0.5%, 1.0% and 2.0% solution, compared to 0.4% oxybuprocaine) is on record as “no corneal sensitivity (local anesthetic activity)”.

On to `Cc1cc(O)c(O)cc1C(=O)OCC(CNC(C)(C)CNC(=O)C1CCOC1)OC(=O)C1CC1(C)C` (stereo not shown) [Compound 8, 4,5-dihydroxy-2-methyl-benzoic acid 2-(2,2-dimethyl-cyclopropanecarbonyloxy)-3-{1,1-dimethyl-2-[(tetrahydro-furan-3-carbonyl)-amino]-ethylamino}-propyl ester], for which the “projected shelf-life” value in series [2] came to 7.9 months.

Consider `Cc1cc(O)c(O)cc1C(=O)OC[C@@H](O)CNC(C)(C)CO` [Compound 15, (S)-4,5-dihydroxy-2-methyl-benzoic acid 2-hydroxy-3-(2-hydroxy-1,1-dimethyl-ethylamino)-propyl ester], for which the IC50 in series [5] worked out at 0.039 µM.

Take `Cc1cc(O)c(O)cc1C(=O)OC[C@@H](O)CNC(C)(C)COC(=O)C(C)(C)C` [Compound 17, (S)-4,5-bis-dihydroxy-2-methyl-benzoic acid 3-[2-(2,2-dimethyl-propionyloxy)-1,1-dimethyl-ethylamino]-2-hydroxy-propyl ester]: in series [5], the IC50 came to 0.012 µM.

Turning to `Cc1cc(O)c(O)cc1C(=O)OC[C@@H](O)CNC(C)(C)COC(=O)C1CCOC1` (stereo partly drawn) [Compound 19, (S)-Tetrahydro-furan-3-carboxylic acid 2-[3-(4,5-dihydroxy-2-methyl-benzoyloxy)-2-hydroxy-propylamino]-2-methyl-propyl ester], the IC50 in series [5] stood at 0.0064 µM.

Source of the values: US20070254950A1, “Oculoselective Drugs and Prodrugs” (Othera Pharmaceuticals, Inc., priority 2004, published 2007).
